Source: patent publication US20060142393A1, “Bis(thio-hydrazide amides) for treatment of hyperplasia” (priority 2004, published 2006)
Like-named read-outs stand apart in the source and are kept apart here. Each block holds one compound with its values, some of them ahead of it.

How the values were obtained:
CEM = assay: MTS cytotoxicity, CEM T cell leukemia; details: Homo sapiens, CCRF-CEM, 72 h, read-out: In vitro Cytotoxicity IC50, CEM
Description: (§1) The in vitro activity of the compounds was determined in a selected set of human leukemia cell lines. CEM (T-cell leukemia), Jurkat (T-cell leukemia), K562 (chronic myelocyte), THP-1 (monocyte), SB (B-cell leukemia), U937 (lymphoma) were purchased from ATCC. H2 leukemia cell line was a gift from Harvard Medical School. The cell lines were maintained in RPMI1640(GIBCO) supplemented with 10% FCS, 100 units/ml penicillin, 100 ug/ml streptomycin, and 2 mM L-glutamine. […] All experiments were performed on exponentially growing cell culture. Cell densities were 2.5×10^4 cells/mL in all experiments.
(§2) Final concentrations […] were obtained by diluting the stock solution directly into the tissue culture medium. Cells were incubated with varying concentrations of compounds for 72 hours and the IC50 was determined by MTS (i.e. […]) assay.

HL-60/TX1000 = assay: MTS growth inhibition, multi-drug resistant HL-60/TX1000 cells; assay type: cell-based, human; details: for IC50: Homo sapiens, HL60/TX1000, 72 hours, MTS assay, MDR cell line
Description: (§3) The in vitro activity of the compounds was assessed in a selected set of human cancer cell lines. Three pairs of tumor cell lines (non-resistant/resistant) were used to identify novel potent antitumor compounds which are capable of overcoming multi-drug resistance.
(§4) HL-60, a model of myeloid leukemia, was obtained from ATCC (ATCC CCL-240); and HL60/TX1000 was isolated in vitro by subculturing HL-60 in progressively higher concentration of Taxol™. HL-60/TX1000 cells over-express mdr-1 mRNA and p-glycoprotein (PCP), as determined by western blot and immunofluorescence labeling with antiPGP antibodies. The cells are cross-resistant to Taxol™, Vincristine, Adriamycin, Etoposide and Doxorubicin.
(§5) All experiments were performed on exponentially growing cell culture. Cell densities were 2.5×10^4 cells/ml in all experiment except special.

Bowes = assay: MTS growth inhibition, Bowes melanoma cells; assay type: cell-based; details: Homo sapiens, 72 h, MTS assay
Description: as §3
(§6) Bowes is a melanoma cell line; and Bowes/OV2 is a Vincristine resistant Bowes melanoma cell line.
as §5

HL-60 = assay: MTS growth inhibition, HL-60 cells; assay type: cell-based; details: Homo sapiens, HL-60, 72 h, MTS assay
Description: as §3, §4, §5

Bowes/OV2 = assay: MTS growth inhibition, Vincristine resistant Bowes/OV2 cells; assay type: cell-based, human; details: for IC50: Homo sapiens, 72 hours, MTS assay, MDR cell line
Description: as §3, §6, §5

MES-SA/DX5 = assay: MTS growth inhibition, multi-drug resistant MES-SA/DX5 cells; assay type: cell-based, human; details: for IC50: Homo sapiens
Description: (§7) The in vitro activity of the compounds was assessed in a selected set of human cancer cell lines.
(§8) MES—SA, a model of uterine sarcoma, is sensitive to a number of chemotherapeutic agents, including Doxorubicin, Dactinomycin, Mitomycin C, Taxol™ and Bleomycin, but resistant to Vinblastine and Cisplatin. MES—SA/DX5 was established in the presence of increasing concentrations of Doxorubicin. […] Both MES—SA and MES—SA/Dx5 were purchased from ATCC (ATCC CRL-1976 and ATCC CRL-1977, respectively).
as §5

SB = assay: MTS cytotoxicity, SB B cell leukemia; details: Homo sapiens, 72 h, read-out: In vitro Cytotoxicity IC50, SB
Description: as §1, §2

CEM cells = assay: Human T-cell leukemia (CEM) growth in SCID mice, FACS quantitation of CEM cells in blood; assay type: in vivo; details: 25 mg/kg intraperitoneally twice a day for 3 weeks; blood at day 33; CEM cells in white blood cells by FACS
From the text: Human T-cell leukemia cell line, CEM, was obtained from American Type Culture Collection. Eight-week old female SCID mice were purchased from Charles Rive Laboratories (Wilmington, Mass.). FITC conjugated anti-human […] was obtained from BD […]). ACK lysing buffer was obtained from BioWhittaker. […] After three weeks treatment, blood was taken from mouse retro-orbital sinus at day 33. Red blood cells were partially lyzed with ACK lysing buffer. The cells were stained with FITC conjugated anti-human […] antibody for one hour at 4° C. FACS analysis was performed to quantitate the amount of CEM cells in the blood. White blood cells were gated for FACS analysis.

[1] = tested on: MDA-435 human breast tumor; assay: MDA-435 human breast carcinoma tumors in nude mice, combination with Epothilone D; assay type: in vivo; details: Compound (1) 50 mg/kg + Epothilone D 5 mg/kg intravenously, 3 times a week for 3 weeks
Description: A supplemented media was prepared from 50% DMEM/Dulbecco Modified Eagle Medium (High Glucose), 50% RPMI 1640, 10% FBS/Fetal Bovine Serum (Hybridoma Tested; Sterile Filtered), 1% L-Glutamine, 1% Penicillin-Streptomycin, 1% MEM Sodium Pyruvate and 1% MEM Non-Essential Amino Acids. FBS was obtained from Sigma Chemical Co. and other ingredients were obtained from Invitrogen Life Technologies, USA). The supplemental media was warmed to 37° C and 50 ml of media was added to a 175 cm^2 tissue culture flask.
The cells used in the assay were MDA-435 Human Breast Carcinoma from the American Type Culture Collection. 1 vial of MDA-435 cells from the liquid nitrogen frozen cell stock was removed. The frozen vial of cells was immediately placed into a 37° C. water bath and gently swirled until thawed. The freeze-vial was wiped with 70% ethanol and cells were immediately pipetted into the 175 cm^2 tissue culture flask containing supplemented media. […]

Jurkat = assay: MTS cytotoxicity, Jurkat T cell leukemia; details: Homo sapiens, 72 h, read-out: In vitro Cytotoxicity IC50, Jurkat
Description: as §1, §2

K-562 = assay: MTS cytotoxicity, K-562 chronic myelocyte; assay type: cell-based; details: Homo sapiens, K562, 72 hours, MTS assay, read-out: In vitro Cytotoxicity IC50, K-562
Description: as §1, §2

THP-1 = assay: MTS cytotoxicity, THP-1 monocyte; details: Homo sapiens, THP-1, 72 h, read-out: In vitro Cytotoxicity IC50, THP-1
Description: as §1, §2

U937 = assay: MTS cytotoxicity, U937 lymphoma; assay type: cell-based; details: Homo sapiens, U-937, 72 hours, MTS assay, read-out: In vitro Cytotoxicity IC50, U937
Description: as §1, §2

H2 = assay: MTS cytotoxicity, H2 leukemia; assay type: cell-based; details: Homo sapiens, 72 hours, MTS assay, read-out: In vitro Cytotoxicity IC50, H2
Description: as §1, §2

[2] = MTS cytotoxicity, 39SK normal fibroblast; assay type: cell-based; details: human, 39SK cells (normal fibroblast), MTS assay, read-out: In vitro Cytotoxicity IC50, 39SK
[3] = tested on: MES-SA/DX5 human sarcoma tumor; assay: MES-SA/DX5 human uterine sarcoma tumors in nude mice; assay type: in vivo; details: 15 mg/kg intravenously, 3 times a week for 3 weeks
Description: A supplemented media was prepared from 50% DMEM/Dulbecco Modified Eagle Medium (High Glucose), 50% RPMI 1640, 10% FBS/Fetal Bovine Serum (Hybridoma Tested; Sterile Filtered), 1% L-Glutamine, 1% Penicillin-Streptomycin, 1% MEM Sodium Pyruvate and 1% MEM Non-Essential Amino Acids. FBS was obtained from Sigmna Chemical Co. and other ingredients were obtained from Invitrogen Life Technologies, USA). The supplemental media was warmed to 37° C. and 50 ml of media was added to a 175 cm^2 tissue culture flask.
The cells used in the assay were multi-drug resistant MES—SA/DX-5 Human Uterine Sarcoma cells from the American Type Culture Collection. 1 vial of MES—SA/DX-5 cells from the liquid nitrogen frozen cell stock was removed. The frozen vial of cells was immediately placed into a 37° C. water bath and gently swirled until thawed. The freeze-vial was wiped with 70% ethanol and cells were immediately pipetted into the 175 cm^2 tissue culture flask containing supplemented media. […]
The flask was washed with 10 ml of sterile room temperature phosphate buffered saline (PBS). […] The supernatant was aspirated and the cell pellet was resuspended in 10 ml of supplemented media and the cells were counted. […]
The above procedure for trypsinizing and centrifuging the cells were followed. The supernatant was aspirated and the cell pellet was resuspended in 10 ml of sterile PBS and the cells were counted. […]

MES-SA = assay: MTS growth inhibition, MES-SA cells; assay type: cell-based; details: Homo sapiens, 72 h, MTS assay
Description: as §7, §8, §5

[4] = MES-SA/Dx5, 72 hours, MTS assay, MDR cell line, read-out: IC50 MES-SA/DX5
[5] = MES-SA/Dx5, Example 2, protocol of Example 1, MDR uterine sarcoma cell line, read-out: IC50 MES/DX5
[6] = MES-SA/Dx5, read-out: IC50 MES/DX5

SMILES: CN(NC(=O)CC(=O)NN(C)C(=S)c1ccccc1)C(=S)c1ccccc1 [Compound (1)]
IC50 (CEM): 10 nM
IC50 (HL-60/TX1000): 0.05 µM
specificity against HL60/TX1000 (HL-60/TX1000; IC50 HL-60 / IC50 HL-60/TX1000 (=0.4/0.05)): 8
IC50 (Bowes): 200 nM
IC50 (HL-60): 400 nM
IC50 (Bowes/OV2): 0.01 µM
specificity against Bowes/OV2 (Bowes/OV2; IC50 Bowes / IC50 Bowes/OV2 (=0.2/0.01)): 20
IC50 (MES-SA/DX5; MES-SA/Dx5, 72 h, read-out: IC50 MES-SA/DX5): 5 nM
specificity against MES-SA/DX5 (MES-SA/DX5; IC50 MES-SA / IC50 MES-SA/DX5 (=0.05/0.005)): 10
IC50 (SB): 5 nM
% circulating leukemia cells (CEM cells): ~4.6%
effect on anti-tumor activity of Epothilone D ([1]; FIG. 2): significantly enhanced anti-tumor activity of Epothilone D
toxicity of combination with Epothilone D (body weight) ([1]; FIG. 3): without increasing toxicity

IC50 (HL-60/TX1000): 5 µM
IC50 (HL-60): 2 to 5 nM
SMILES: CC(=O)O[C@H]1C(=O)[C@@]2(C)[C@H]([C@H](OC(=O)c3ccccc3)[C@]3(O)C[C@H](OC(=O)[C@H](O)[C@@H](NC(=O)c4ccccc4)c4ccccc4)C(C)=C1C3(C)C)[C@]1(OC(C)=O)CO[C@@H]1C[C@@H]2O [Taxol ™, paclitaxel]
IC50 (CEM): 10 nM
IC50 (Jurkat): 1 nM
IC50 (K-562): 5 nM
IC50 (THP-1): 5 nM
IC50 (U937): 5 nM
IC50 (H2): 5 nM
IC50 (Bowes/OV2): 5 µM
IC50 (MES-SA/DX5; [4]): 5000 nM
IC50 (MES-SA/DX5; [5]): 5000 nM
IC50 (SB): 1 nM
IC50 at 72 h [2]: 1000 nM

SMILES: CN(NC(=O)CC(=O)NN(C)C(=S)C1CC1)C(=S)C1CC1 [(18)]
IC50 (MES-SA/DX5; [5]): 10 nM

SMILES: CN(NC(=O)CC(=O)NN(C)C(=S)c1cc(Cl)ccc1Cl)C(=S)c1cc(Cl)ccc1Cl [Compound (14)]
IC50 (MES-SA/DX5; [6]): 10 nM

SMILES: CCN(NC(=O)C(C)C(=O)NN(CC)C(=S)c1ccccc1)C(=S)c1ccccc1 [Compound (16)]
IC50 (MES-SA/DX5; [6]): 50 nM
toxicity (body weight suppression, behavior changes) [3]: no obvious toxicity
tumor growth of MES/SA-DX5 compared to vehicle treated mice ([3]; FIG. 1): significantly inhibits the tumor growth

SMILES: COc1ccc(C)c(C(=S)N(C)NC(=O)CC(=O)NN(C)C(=S)c2cc(OC)ccc2C)c1 [Compound (13)]
IC50 (MES-SA/DX5; [6]): 50 nM

IC50 (HL-60/TX1000): 5 µM
IC50 (Bowes): 2 to 5 nM
IC50 (HL-60): 2 to 5 nM
SMILES: CC[C@]1(O)C[C@H]2CN(CCc3c([nH]c4ccccc34)[C@@](C(=O)OC)(c3cc4c(cc3OC)N(C=O)[C@H]3[C@@](O)(C(=O)OC)[C@H](OC(C)=O)[C@]5(CC)C=CCN6CC[C@]43[C@@H]65)C2)C1 [Vincristine]
IC50 (CEM): 5 nM
IC50 (Jurkat): 1 nM
IC50 (K-562): 5 nM
IC50 (MES-SA): 2 to 5 nM
IC50 (THP-1): 5 nM
IC50 (U937): 5 nM
IC50 (H2): 5 nM
IC50 (Bowes/OV2): 5 µM
IC50 (MES-SA/DX5; [4]): 5000 nM
IC50 (SB): 1 nM
IC50 at 72 h [2]: 1000 nM

SMILES: COc1cccc(C(=S)N(C)NC(=O)C(C)C(=O)NN(C)C(=S)c2cccc(OC)c2OC)c1OC [Compound (12)]
IC50 (MES-SA/DX5; [6]): 5 nM
